Experimental findings from PubChem BioAssay (NCI) are described below.

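96-well plates; 48 h exposure; 5 concentrations. Endpoints by linear interpolation between flanking doses. Not reached: highest tested concentration assigned. Definition used: TGI = concentration required for complete inhibition of growth.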 Where a SMILES comes first, the peptide text is derived from it. [ ]: non-standard residue; d: D form. pGlu = O=C1CC[CH](C(=O)O)N1

Test systems include SNB-19 CNS; LOX IMVI melanoma; K-562 leukemia; NCI-H23 lung; MDA-MB-231 breast; SF-539 CNS; RPMI-8226 leukemia; UO-31 renal; SK-MEL-2 melanoma; T-47D breast; MCF7 breast; IGROV1 ovarian.
What all share (test): DTP human tumour cell line panel, 48 h

For `CN1CCC2(CC1)SSC1(CCN(C)CC1)S2`, the TGI with SNB-19 CNS, in the assay with LOX IMVI melanoma, in the assay on K-562 leukemia, in the assay with NCI-H23 lung, in the assay with MDA-MB-231 breast and in the assay with SF-539 CNS was more than 100 µM throughout. Besides, the TGI with RPMI-8226 leukemia, in the assay with UO-31 renal and in the assay with SK-MEL-2 melanoma was more than 100 µM in each case.

Consider `CC1OC(OC2C(O)COC(OC3C(C)OC(OC4C(OC(=O)[C@]56CCC(C)(C)C[C@@H]5C5=CCC7[C@@]8(C)C[C@H](O)[C@H](OC9OC(CO)C(O)C(O)C9O)[C@@](C)(CO)[C@@H]8CC[C@@]7(C)[C@]5(C)CC6)OCC(O)C4O)C(O)C3O)C2O)C(O)C(O)C1O` (stereo partly specified), for which the concentration for total growth inhibition (TGI) (usually the concentration at which net growth stops) was 38.7 µM in the assay on SNB-19 CNS; 46 µM with LOX IMVI melanoma; more than 100 µM with K-562 leukemia; 47.4 µM in the assay with T-47D breast; 51.2 µM with NCI-H23 lung; 40.2 µM with MDA-MB-231 breast. Besides, the TGI in the assay with MCF7 breast is more than 100 µM; in the assay with SF-539 CNS it was 42.8 µM; in the assay with RPMI-8226 leukemia, more than 100 µM; in the assay on UO-31 renal, 28.4 µM.

As for `CC1C(C)(C)C23CC12C1(OCCO1)C3Br` (stereo unspecified), the TGI with SNB-19 CNS, in the assay on LOX IMVI melanoma, in the assay on K-562 leukemia, with NCI-H23 lung, in the assay on MDA-MB-231 breast and with MCF7 breast was more than 100 µM each time. In addition, the TGI with IGROV1 ovarian, with SF-539 CNS, with RPMI-8226 leukemia and with UO-31 renal was more than 100 µM in each case.

As to `COC(=O)C1=CO[C@@H](C)[C@@H]2Cn3ccc4c5ccccc5nc-4c3C[C@H]12`, the TGI in the assay on SNB-19 CNS, in the assay with LOX IMVI melanoma, in the assay with K-562 leukemia, in the assay on NCI-H23 lung, in the assay on IGROV1 ovarian and in the assay on SF-539 CNS was more than 100 µM throughout. Besides, the TGI in the assay on RPMI-8226 leukemia, in the assay on UO-31 renal and with SK-MEL-2 melanoma was more than 100 µM throughout.

For `O=S1(=O)c2ccccc2N(O)C2=NCCN21`, the TGI in the assay with SNB-19 CNS, with LOX IMVI melanoma, in the assay with K-562 leukemia, in the assay with NCI-H23 lung, in the assay with IGROV1 ovarian and in the assay with SF-539 CNS was more than 100 µM each time. Also, the TGI with RPMI-8226 leukemia, in the assay on UO-31 renal and in the assay on SK-MEL-2 melanoma was more than 100 µM in each case.

Regarding `CC(C)(C)C1=CC(=N/N=c2\scc(-c3ccccc3)n2-c2ccccc2)C=C(C(C)(C)C)C1=O`, the TGI in the assay with SNB-19 CNS, in the assay with LOX IMVI melanoma, in the assay on K-562 leukemia, in the assay with NCI-H23 lung, in the assay with IGROV1 ovarian and in the assay on SF-539 CNS was more than 100 µM in each case. The TGI in the assay on RPMI-8226 leukemia, in the assay on UO-31 renal and with SK-MEL-2 melanoma was more than 100 µM in each case.

Take `COC(=O)C(Cc1c[nH]c2ccccc12)NC(=O)C(Cc1cnc[nH]1)NC(=O)C1CCC(=O)N1C(=O)OCc1ccccc1` (stereo unspecified): the TGI with SNB-19 CNS, in the assay with K-562 leukemia, in the assay with T-47D breast, with NCI-H23 lung, with MCF7 breast and in the assay on IGROV1 ovarian was more than 100 µM throughout. Moreover, the TGI in the assay with RPMI-8226 leukemia, with UO-31 renal and with SK-MEL-2 melanoma was more than 100 µM throughout.

In the case of `COc1ccc2[nH]cc(CCNC(=O)[C@H](Cc3ccc(O)cc3)NC(=O)[C@@H](NCC(F)(F)F)C(C)C)c2c1`, the TGI in the assay with SNB-19 CNS, in the assay with LOX IMVI melanoma, in the assay on K-562 leukemia, with NCI-H23 lung, with MDA-MB-231 breast and in the assay on MCF7 breast was more than 100 µM in each case. Moreover, the TGI in the assay on IGROV1 ovarian, with SF-539 CNS, in the assay with RPMI-8226 leukemia, in the assay on UO-31 renal and in the assay on SK-MEL-2 melanoma was more than 100 µM in each case.

Take `O=C1CCCCCCC2=C1C(Sc1ccccc1)CC2` (stereo unspecified): the TGI in the assay with SNB-19 CNS was more than 100 µM; in the assay with LOX IMVI melanoma, 30.7 µM; in the assay on K-562 leukemia, more than 100 µM; in the assay with NCI-H23 lung it was more than 100 µM; in the assay on RPMI-8226 leukemia, 95.5 µM; in the assay with UO-31 renal, 92.1 µM.

Regarding `COc1ccc(/C=N\N(C)Cc2cccc3ccsc23)cc1`, the TGI with SNB-19 CNS, with LOX IMVI melanoma, with K-562 leukemia, in the assay on T-47D breast, in the assay with NCI-H23 lung and in the assay with MDA-MB-231 breast was more than 100 µM throughout. The total growth inhibition concentration (TGI) in the assay on MCF7 breast, with IGROV1 ovarian and in the assay on UO-31 renal was more than 100 µM throughout.

As for `CC(C)C1CSC2N1C(=O)C2(OCc1ccccc1)C1CC1` (stereo unspecified), the TGI with SNB-19 CNS, in the assay with LOX IMVI melanoma, in the assay with K-562 leukemia, in the assay with T-47D breast, in the assay with NCI-H23 lung and with MDA-MB-231 breast was more than 100 µM in each case. Further, the TGI in the assay on MCF7 breast, with IGROV1 ovarian, in the assay with SF-539 CNS, with RPMI-8226 leukemia and in the assay with UO-31 renal was more than 100 µM in each case.

Consider `CCOC(=O)C1(C(=O)OCC)C(C(C)(C)C)=C(C)c2ccccc21`, for which the TGI amounted to 45 µM with SNB-19 CNS; 25 µM with LOX IMVI melanoma; 53.5 µM with K-562 leukemia; 30.4 µM with NCI-H23 lung; 36 µM in the assay on IGROV1 ovarian; 32.8 µM in the assay with SF-539 CNS. Also, the TGI with RPMI-8226 leukemia is 55.8 µM; in the assay on UO-31 renal, 47.3 µM; with SK-MEL-2 melanoma, 37.6 µM.

Consider `CC(NC(=O)C1CCC(=O)N1)C(=O)N1CCCC1C(N)=O` (stereo not drawn) ([pGlu]-Ala-Pro-NH2; configuration not given here), for which the TGI with SNB-19 CNS, with LOX IMVI melanoma, with K-562 leukemia, in the assay with T-47D breast, with NCI-H23 lung and in the assay on MDA-MB-231 breast was more than 100 µM each time. Further, the TGI in the assay on MCF7 breast, in the assay with IGROV1 ovarian, in the assay with RPMI-8226 leukemia and in the assay with UO-31 renal was more than 100 µM each time.

Turning to `COC1OC2COC1(OCc1ccccc1)C1OC(C)(C)OC21` (stereo unspecified), the TGI with SNB-19 CNS, with K-562 leukemia, in the assay on T-47D breast, in the assay on NCI-H23 lung, with MDA-MB-231 breast and in the assay with MCF7 breast was more than 100 µM each time. In addition, the TGI in the assay on IGROV1 ovarian, in the assay with RPMI-8226 leukemia, in the assay on UO-31 renal and in the assay with SK-MEL-2 melanoma was more than 100 µM throughout.
